This passage reports IC50 results from article PMC10145898, “Drug Repurposing of FDA Compounds against α-Glucosidase for the Treatment of Type 2 Diabetes: Insights from Molecular Docking and Molecular Dynamics Simulations” (Pharmaceuticals, 2023).

By IC50 is commonly meant the concentration that inhibits the measured activity by half. Read a high IC50 as weaker potency.

This assay concerns the target α-glucosidase. The assay is described as follows: pNPG hydrolysis absorbance assay at […] nm, pH […] °C. It is filed as biochemical.

The molecule `COc1cc2c(cc1O)CCN[C@]21CS[C@@H]2c3c(OC(C)=O)c(C)c4c(c3[C@H](COC1=O)N1[C@@H]2[C@H]2c3c(cc(C)c(OC)c3O)C[C@@H]([C@@H]1O)N2C)OCO4` [Trabectedin] yielded an IC50 of 1.26 ± 0.7 µM.
